A short description of this data set: Aqueous solubility of extractants by qNMR. Type of data set: physicochemical. To be noted: water, thermodynamic from solid; experimentally determined; in D2O by qNMR. The protocol:
A 1 mL volumetric flask was charged with 10–15 mg of the extractant and 1 mL of D2O. The resulting suspension was sonicated for 30 min and the content was centrifuged, filtered through a 0.45 µm syringe filter, and transferred into an NMR tube. A sealed capillary containing an external calibrant (acetanilide for ^1H qNMR and triphenylphosphine for ^31P qNMR) was inserted into the NMR tube and the solubility of extractants 1–9 was determined from their ^1H or ^31P NMR spectra using the formula: Cx = (Ix/Ical) × (Ncal/Nx) × Ccal, where I, N, and C are the integral area, number of nuclei, and the concentration of the extractant (x) and the calibrant (cal), respectively.
For `CCCCCCCCOP(=O)(O)C(Nc1ccccc1)c1ccccc1` (stereo not drawn) [Extractant 1, reference compound], the solubility at 30 min was determined as 220 µM.

Consider `COP(=O)(O)C(Nc1ccc(C(C)(C)C)cc1)c1ccc(C(C)(C)C)cc1` (stereo not drawn) [Extractant 2], for which the solubility at 30 min worked out at 100 µM.

`CCCCCCCCOP(=O)(O)C(Nc1ccc(OC)cc1)c1cccs1` (stereo not drawn) [Extractant 3] showed a solubility at 30 min of 250 µM.

Take `CCCCCCCCOP(=O)(O)C(Nc1ccc(C(F)(F)F)cc1)c1ccc(C(C)(C)C)cc1` (stereo not drawn) [Extractant 4]: the solubility at 30 min was found to be 80 µM.

`CCCCCCCCOP(=O)(O)C(Nc1ccc(OC)cc1)c1ccc(C(F)(F)F)cc1` (stereo not drawn) [Extractant 5] had a solubility at 30 min of 40 µM.

In turn, `COP(=O)(O)C(Nc1ccc(C(F)(F)F)cc1)c1cc(C(F)(F)F)cc(C(F)(F)F)c1` (stereo not drawn) [Extractant 6] displayed a solubility at 30 min of 2600 µM.

In turn, `CCCCCCCCOP(=O)(O)C(Nc1cc(C(F)(F)F)cc(C(F)(F)F)c1)c1ccc(C(C)(C)C)cc1` (stereo not drawn) [Extractant 7] gave a solubility at 30 min of 80 µM.

In turn, `COCCOCCOP(=O)(O)C(Nc1cc(C(F)(F)F)cc(C(F)(F)F)c1)c1ccc(C(F)(F)F)cc1` (stereo not drawn) [Extractant 8] had a solubility at 30 min of 1600 µM.

Take `COCCOCCOP(=O)(O)C(Nc1cc(C(F)(F)F)cc(C(F)(F)F)c1)c1cc(C(F)(F)F)cc(C(F)(F)F)c1` (stereo not drawn) [Extractant 9]: the solubility at 30 min was 1730 µM.

What is called solubility is the concentration that dissolves in the medium under given conditions. High values mean much dissolved substance, low ones little dissolved substance.
